Legend:
Conditions in all cases: incubation time: 72 h
[1] = tested on: MFM-223; assay: normalised response (% of control), CellTiter-Glo; higher = more viable cells (100 = DMSO, 0 = benzethonium chloride kill control)
Summary of the method: (§1)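 Normalised signals at single concentrations make up the values. They come from breast cancer cell lines seeded (20 µl suspension) into 384-well plates with compound at 5 concentrations in 10-fold steps over a compound-specific 10,000-fold range, incubated 72 h, and read for CellTox Green fluorescence then CellTiter-Glo luminescence. Each plate was normalised to 0.1 % DMSO (100) and a positive kill control (0).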

[2] = tested on: HCC1599; assay: as above
Summary of the method: as §1

[3] = tested on: SK-BR-3; assay: as above
Summary of the method: as §1

[4] = tested on: MDA-MB-436; assay: as above
Summary of the method: as §1

[5] = tested on: Hs578T; assay: as above
Summary of the method: as §1

[6] = tested on: DU-4475; assay: as above
Summary of the method: as §1

[7] = tested on: CAL-120; assay: as above
Summary of the method: as §1

[8] = tested on: HCC1937; assay: as above
Summary of the method: as §1

[9] = tested on: CAL-85-1; assay: as above
Summary of the method: as §1

[10] = tested on: CAL-51; assay: as above
Summary of the method: as §1

[11] = tested on: MDA-MB-453; assay: as above
Summary of the method: as §1

[12] = tested on: BT-549; assay: as above
Summary of the method: as §1

[13] = tested on: BT-474; assay: as above
Summary of the method: as §1

[14] = tested on: CAL-148; assay: as above
Summary of the method: as §1

[15] = tested on: MDA-MB-231; assay: as above
Summary of the method: as §1

[16] = tested on: MDA-MB-468; assay: as above
Summary of the method: as §1

[17] = tested on: HCC1143; assay: as above
Summary of the method: as §1

[18] = tested on: HDQ-P1; assay: as above
Summary of the method: as §1

[19] = tested on: MCF-10A; assay: as above
Summary of the method: as §1

[20] = tested on: MFM-223; assay: normalised viability (% of control), CellTiter-Blue; higher = more viable cells (100 = DMSO, 0 = benzethonium chloride kill control)
Experimental: (§2)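 DSRT, CellTiter-Blue viability, 72 h incubation. Signal is normalised to DMSO and benzethonium chloride controls. Value is the normalised response at dose 1.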

[21] = tested on: HCC1599; assay: as above
Experimental: as §2

[22] = tested on: SK-BR-3; assay: as above
Experimental: as §2

[23] = tested on: MDA-MB-436; assay: as above
Experimental: as §2

[24] = tested on: Hs578T; assay: as above
Experimental: as §2

[25] = tested on: DU-4475; assay: as above
Experimental: as §2

[26] = tested on: CAL-120; assay: as above
Experimental: as §2

[27] = tested on: HCC1937; assay: as above
Experimental: as §2

[28] = tested on: CAL-85-1; assay: as above
Experimental: as §2

[29] = tested on: CAL-51; assay: as above
Experimental: as §2

[30] = tested on: MDA-MB-453; assay: as above
Experimental: as §2

[31] = tested on: BT-549; assay: as above
Experimental: as §2

[32] = tested on: BT-474; assay: as above
Experimental: as §2

[33] = tested on: CAL-148; assay: as above
Experimental: as §2

[34] = tested on: MDA-MB-231; assay: as above
Experimental: as §2

[35] = tested on: MDA-MB-468; assay: as above
Experimental: as §2

[36] = tested on: HCC1143; assay: as above
Experimental: as §2

[37] = tested on: HDQ-P1; assay: as above
Experimental: as §2

Cn1c(Nc2ccc(C(F)(F)F)cc2)nc2cc(Oc3ccnc(-c4ncc(C(F)(F)F)[nH]4)c3)ccc21 [RAF265] (0.1 nM)
normalised response [1]: 108% | normalised response [2]: 112% | normalised response [3]: 110% | normalised response [4]: 104% | normalised response [5]: 106% | normalised response [6]: 107% | normalised response [7]: 99% | normalised response [8]: 102% | normalised response [9]: 102% | normalised response [10]: 73.6% | normalised response [11]: 118% | normalised response [12]: 104% | normalised response [13]: 107% | normalised response [14]: 110% | normalised response [15]: 103% | normalised response [16]: 102% | normalised response [17]: 106% | normalised response [18]: 103% | normalised response [19]: 107% | normalised viability [20]: 96% | normalised viability [21]: 119% | normalised viability [22]: 89.5% | normalised viability [23]: 104% | normalised viability [24]: 111% | normalised viability [25]: 105% | normalised viability [26]: 86.2% | normalised viability [27]: 99% | normalised viability [28]: 87.7% | normalised viability [29]: 94.2% | normalised viability [30]: 103% | normalised viability [31]: 117% | normalised viability [32]: 102% | normalised viability [33]: 95.6% | normalised viability [34]: 117% | normalised viability [35]: 104% | normalised viability [36]: 104% | normalised viability [37]: 80.2%

N[C@@H](CSC(c1ccccc1)(c1ccccc1)c1ccccc1)C(=O)O [S-trityl-L-cysteine] (4 nM)
normalised response [1]: 96.9% | normalised response [2]: 87.5% | normalised response [3]: 99.6% | normalised response [4]: 85.6% | normalised response [5]: 95.5% | normalised response [6]: 95.7% | normalised response [7]: 106% | normalised response [8]: 92% | normalised response [9]: 101% | normalised response [10]: 81% | normalised response [11]: 107% | normalised response [12]: 96.5% | normalised response [13]: 105% | normalised response [14]: 103% | normalised response [15]: 100% | normalised response [16]: 101% | normalised response [17]: 97% | normalised response [18]: 103% | normalised response [19]: 97.6% | normalised viability [20]: 105% | normalised viability [21]: 108% | normalised viability [22]: 88.2% | normalised viability [23]: 109% | normalised viability [24]: 106% | normalised viability [25]: 116% | normalised viability [26]: 115% | normalised viability [27]: 89% | normalised viability [28]: 122% | normalised viability [29]: 91.3% | normalised viability [30]: 88.6% | normalised viability [31]: 85.8% | normalised viability [32]: 91.1% | normalised viability [33]: 112% | normalised viability [34]: 104% | normalised viability [35]: 101% | normalised viability [36]: 143% | normalised viability [37]: 96.6%

N.N.[Cl][Pt][Cl] [Cisplatin] (1 nM)
normalised response [1]: 99.4% | normalised response [2]: 102% | normalised response [3]: 98.7% | normalised response [4]: 96.7% | normalised response [5]: 101% | normalised response [6]: 94.2% | normalised response [7]: 101% | normalised response [8]: 101% | normalised response [9]: 94.9% | normalised response [10]: 74.7% | normalised response [11]: 99.3% | normalised response [12]: 98.7% | normalised response [13]: 101% | normalised response [14]: 90.5% | normalised response [15]: 100% | normalised response [16]: 94.9% | normalised response [17]: 90.8% | normalised response [18]: 101% | normalised response [19]: 95.4% | normalised viability [20]: 93.7% | normalised viability [21]: 96.4% | normalised viability [22]: 100% | normalised viability [23]: 105% | normalised viability [24]: 121% | normalised viability [25]: 107% | normalised viability [26]: 85.1% | normalised viability [27]: 90.5% | normalised viability [28]: 92.1% | normalised viability [29]: 113% | normalised viability [30]: 111% | normalised viability [31]: 92% | normalised viability [32]: 109% | normalised viability [33]: 118% | normalised viability [34]: 103% | normalised viability [35]: 98.2% | normalised viability [36]: 98.2% | normalised viability [37]: 106%

Cc1ccc(C(=O)N(CCCN)[C@@H](c2oc3cc(Cl)ccc3c(=O)c2Cc2ccccc2)C(C)C)cc1 (0.1 nM)
normalised response [1]: 93.2% | normalised response [2]: 101% | normalised response [3]: 89% | normalised response [4]: 106% | normalised response [5]: 102% | normalised response [6]: 96% | normalised response [7]: 100% | normalised response [8]: 101% | normalised response [9]: 96% | normalised response [10]: 98.9% | normalised response [11]: 100% | normalised response [12]: 99.1% | normalised response [13]: 97.8% | normalised response [14]: 101% | normalised response [15]: 98.7% | normalised response [16]: 89.2% | normalised response [17]: 96.8% | normalised response [18]: 100% | normalised response [19]: 90.2% | normalised viability [20]: 105% | normalised viability [21]: 108% | normalised viability [22]: 105% | normalised viability [23]: 111% | normalised viability [24]: 135% | normalised viability [25]: 95.9% | normalised viability [26]: 90.3% | normalised viability [27]: 93% | normalised viability [28]: 86.1% | normalised viability [29]: 103% | normalised viability [30]: 101% | normalised viability [31]: 100% | normalised viability [32]: 68.8% | normalised viability [33]: 111% | normalised viability [34]: 90.4% | normalised viability [35]: 97.3% | normalised viability [36]: 101% | normalised viability [37]: 126%
